Key:
Type in all cases: cell-based
[1] = system: Actinobacillus actinomycetemcomitans Y4; assay: Antibacterial test, propagation by turbidity in broth (Example 1); conditions: medium containing 0.1 mM or 1.0 mM trifluoromethionine, FIG. 5
Escherichia coli BL 21 = assay: as above; conditions: medium containing 0.1 mM or 1.0 mM trifluoromethionine, FIG. 6
[2] = system: Actinobacillus actinomycetemcomitans Y4; assay: Minimum growth-inhibiting concentration on agar media (Example 2); conditions: A. actinomycetemcomitans Y4, anaerobic, 37° C., 48-72 hours
Protocol: (§1) 3 ml of GAM broth (Nissui Medical) containing 5 μg/ml of hemin and 1 μg/ml of menadione was separately inoculated with one platinum loop each of subcultures of causative bacteria of periodontal disease, strains Porphyromonas gingivalis W83, W50, ATCC49417 and ATCC33277, strain Actinobacillus actinomycetemcomitans Y4, and strains Fusobacterium nucleatum ATCC10953 and ATCC25586, followed by incubation at 37° C. under anaerobic conditions (10% CO2, 10% H2 and 80% N2) overnight. Then, the resulting cultures were diluted to 10^−8, 10^−6, 10^−4 and 10^−3 to make inoculating bacterial solutions, respectively.
(§2) Agar media containing 400, 200, 100, 50, 25, 10 and 5 μg/ml of TFM, respectively, were prepared and streaked, about 2 cm long, with a platinum loop each of the above-prepared inoculating bacterial solutions, followed by incubation under the same anaerobic conditions as above at 37° C. for 48-72 hours to evaluate growth of the bacteria.

[3] = system: Fusobacterium nucleatum ATCC10953; assay: as above; conditions: F. nucleatuium ATCC 10953, anaerobic, 37° C., 48-72 hours
Protocol: as §1, §2

[4] = system: Fusobacterium nucleatum ATCC25586; assay: as above; conditions: F. nucleatuium ATCC 25586, anaerobic, 37° C., 48-72 hours
Protocol: as §1, §2

[5] = system: Porphyromonas gingivalis ATCC33277; assay: as above; conditions: P. gingivalis ATCC 33277, anaerobic, 37° C., 48-72 hours
Protocol: as §1, §2

[6] = system: Porphyromonas gingivalis ATCC49417; assay: as above; conditions: P. gingivalis ATCC 49417, anaerobic, 37° C., 48-72 hours
Protocol: as §1, §2

[7] = system: Porphyromonas gingivalis W50; assay: as above; conditions: P. gingivalis W50, anaerobic, 37° C., 48-72 hours
Protocol: as §1, §2

[8] = system: Porphyromonas gingivalis W83; assay: as above; conditions: P. gingivalis W83, anaerobic, 37° C., 48-72 hours
Protocol: as §1, §2

S. sanguis ST160 = assay: as above; conditions: Brain Heart Infusion, 5% CO2
Protocol: as §1, §2
(§3) Streptococcus sobrinus MT8246, Streptococcus sanuis ST160, Streptococcus mutans Xc and Streptococcus salivarius HHT were likewise incubated in Brain Heart Infusion (Difco) in the same manner as above except that the incubation was conducted in the presence of 5% CO2 to evaluate the growth.

Streptococcus mutans Xc = assay: as above; conditions: S. mutans Xc; Brain Heart Infusion, 5% CO2
Protocol: as §1, §2, §3

[9] = system: Streptococcus salivarius HHT; assay: as above; conditions: S. salivarius HHT; Brain Heart Infusion, 5% CO2
Protocol: as §1, §2, §3

[10] = system: Streptococcus sobrinus MT8246; assay: as above; conditions: S. sobrinus MT8246; Brain Heart Infusion, 5% CO2
Protocol: as §1, §2, §3

[11] = system: Staphylococcus epidermidis ATCC12228; assay: MIC by agar plate dilution method on standard strains (Example 3)
Protocol: (§4) Minimum growth-inhibiting concentrations of trifluoromethionine and other antibacterial drugs on standard strains were determined by an agar plate dilution method according to the standard method of Japanese Society of Chemotherapy.
(§5) Drug solutions at a concentration 10 times as high as the maximum applicable concentration were prepared as original solutions of test drugs given in Table 2 (as to solvents used for this purpose, reference should be made also to Table 2). Serial two-fold dilution series of the original solutions were prepared at desired stages, and 1 ml each of the diluted drug solutions was added to 9 ml of media given in Table 3 to prepare drug plates. Concentration range of the individual drugs used are as follows: trifluoromethionine: 400-0.025 μg/ml (15 stages), tetracycline: 100-0.025 μg/ml (13 stages), and clarithromycin: 100-0.025 μg/ml (13 stages).
(§6) • 1) Bacterial solutions stocked at −80° C. were inoculated on agar media (as to media used, reference should be made to Table 3), and then incubated at 37° C. overnight. When desired, subculturing was conducted once more on the same agar media (by overnight incubation at 37° C.). • 2) Colonies growing on the agar media were sampled by a platinum loop, suspended in liquid media (reference should be made to Table 3) and statically incubated at 37° C. for 18 hours (preculturing). • 3) Preculturing was continued up to McFarland 0.5 (McFarland 0.5=about 10^8 CFU/ml), and then the culture broths were diluted with Muellar Hinton Broth to make 10^6 CFU/ml. 5 μl each of the diluted solutions were inoculated on the above-mentioned drug plates by an inoculator Microplanter.
(§7) Thus, bacterial solutions at about 10^8 CFU/ml can be easily prepared by use of McFarland 0.5. Bacterial solutions at such a turbidity are commercially available, but can be easily prepared. McFarland 0.5 can be obtained by adding 0.5 ml of an aqueous 0.048 mol/l barium chloride solution to 99.5 ml of 1% v/v (0.18 mol/l) sulfuric acid. • 4) The individual bacteria were incubated at 37° C. for 18-20 hours and then the growth was determined in the same manner as in Example 2 to obtain minimum growth-inhibiting concentrations.

[12] = system: Staphylococcus epidermidis ATCC29886; assay: as above
Protocol: as §4, §5, §6, §7

N[C@@H](CCSC(F)(F)F)C(=O)O [TFM, Trifluoromethionine]
antibacterial effect (propagation of bacteria, absorbance at 550 nm) [1]: remarkable antibacterial effects | antibacterial effect (propagation of bacteria, absorbance at 550 nm) (Escherichia coli BL 21): failed to show a significant antibacterial effect | Minimum growth-inhibiting concentration [2]: 10 µg/mL | Minimum growth-inhibiting concentration [3]: 25 µg/mL | Minimum growth-inhibiting concentration [4]: 25 µg/mL | Minimum growth-inhibiting concentration [5]: 5 µg/mL | Minimum growth-inhibiting concentration [6]: 5 µg/mL | Minimum growth-inhibiting concentration [7]: 5 µg/mL | Minimum growth-inhibiting concentration [8]: 5 µg/mL | Minimum growth-inhibiting concentration (S. sanguis ST160): >400 µg/mL | Minimum growth-inhibiting concentration (Streptococcus mutans Xc): >400 µg/mL | Minimum growth-inhibiting concentration [9]: >400 µg/mL | Minimum growth-inhibiting concentration [10]: >400 µg/mL | MIC [11]: >400 µg/mL | MIC [12]: >400 µg/mL

From patent US20050175550A1, “Compositions for oral use” (priority 2000, published 2005)
